What was measured:
GSK3A = GSK3A (Homo sapiens, UniProt P49840); experiment: in vitro HotSpot kinase assay (Reaction Biology), 10-dose IC50 in triplicate; type: biochemical
GSK3B = GSK3B (Homo sapiens, UniProt P49841); experiment: as above; type: biochemical
GSK3B, sequence (P49841 whole entry): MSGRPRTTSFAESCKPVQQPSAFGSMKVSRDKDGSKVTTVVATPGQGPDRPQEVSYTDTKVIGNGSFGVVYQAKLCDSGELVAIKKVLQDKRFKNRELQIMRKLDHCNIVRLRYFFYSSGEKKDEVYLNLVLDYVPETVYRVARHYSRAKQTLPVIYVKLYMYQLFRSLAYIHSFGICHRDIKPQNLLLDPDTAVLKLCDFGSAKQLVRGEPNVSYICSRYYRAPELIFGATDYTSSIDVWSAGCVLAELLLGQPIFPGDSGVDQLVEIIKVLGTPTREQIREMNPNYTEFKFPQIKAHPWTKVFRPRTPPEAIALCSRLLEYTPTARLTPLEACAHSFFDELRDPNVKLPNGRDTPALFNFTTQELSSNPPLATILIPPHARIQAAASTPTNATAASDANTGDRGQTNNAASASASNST

GSK3A, sequence (P49840 2-483): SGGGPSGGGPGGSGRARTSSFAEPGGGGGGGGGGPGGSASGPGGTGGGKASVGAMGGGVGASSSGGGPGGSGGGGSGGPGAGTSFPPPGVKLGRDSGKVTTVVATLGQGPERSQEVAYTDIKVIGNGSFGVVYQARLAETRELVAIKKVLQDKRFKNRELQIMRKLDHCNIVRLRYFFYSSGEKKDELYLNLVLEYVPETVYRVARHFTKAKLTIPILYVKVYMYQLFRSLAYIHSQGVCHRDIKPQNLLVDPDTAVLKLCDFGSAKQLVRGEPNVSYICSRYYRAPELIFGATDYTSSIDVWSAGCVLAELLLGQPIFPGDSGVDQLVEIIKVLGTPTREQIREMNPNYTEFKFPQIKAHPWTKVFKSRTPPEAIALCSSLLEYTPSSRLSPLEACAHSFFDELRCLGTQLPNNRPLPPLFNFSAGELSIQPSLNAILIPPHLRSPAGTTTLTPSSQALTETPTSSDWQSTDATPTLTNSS

With `CCn1cc(C(=O)O)c(=O)c2c(N)c(F)c(NC3CCCCC3)cc21` [AS1842856] the IC50 (GSK3A) was 2.8 nM and the IC50 (GSK3B) was 2.8 nM.
